Earlier results, collected in patent US20240101656A1, “PLK1 INHIBITOR IN COMBINATION WITH ANTI-ANGIOGENICS FOR TREATING METASTATIC CANCER” (CARDIFF ONCOLOGY, INC., priority 2022, published 2024).
Read-outs that look alike come from different tables or passages of the source.

Tests used:
[1] = system: patients with advanced/metastatic solid tumors
[2] = system: disseminated models of AML
[3] = system: HT29 human colon adenocarcinoma xenografts; details: combination therapy with irinotecan
[4] = system: cell lines, both from solid as well as hematologic tumors
[5] = system: AML cell lines
[6] = system: xenograft models of AML; details: in vivo
[7] = system: cancer cell lines
[8] = in vivo
[9] = target: PLK1 (Homo sapiens, UniProt P53350)
Sequence of PLK1 (P53350 whole entry): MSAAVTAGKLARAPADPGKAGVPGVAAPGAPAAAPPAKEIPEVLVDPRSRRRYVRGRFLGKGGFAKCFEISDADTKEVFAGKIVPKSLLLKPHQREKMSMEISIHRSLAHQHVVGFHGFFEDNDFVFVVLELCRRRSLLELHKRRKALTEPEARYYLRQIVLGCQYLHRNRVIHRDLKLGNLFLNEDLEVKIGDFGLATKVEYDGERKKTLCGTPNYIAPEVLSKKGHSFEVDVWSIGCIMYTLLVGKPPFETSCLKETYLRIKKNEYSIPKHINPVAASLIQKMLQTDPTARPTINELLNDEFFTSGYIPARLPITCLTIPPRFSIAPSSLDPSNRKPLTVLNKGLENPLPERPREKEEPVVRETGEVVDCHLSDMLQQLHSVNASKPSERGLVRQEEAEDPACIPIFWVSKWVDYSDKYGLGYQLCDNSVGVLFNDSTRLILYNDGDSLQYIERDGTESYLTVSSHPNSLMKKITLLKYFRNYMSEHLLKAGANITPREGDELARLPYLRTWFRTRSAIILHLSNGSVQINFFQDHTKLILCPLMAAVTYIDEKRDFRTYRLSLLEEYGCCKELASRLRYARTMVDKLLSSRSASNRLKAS

[10] = system: xenograft tumor; details: well tolerated doses, oral administration
[11] = system: AML; details: in combination with LDAC
[12] = system: patients with AML who were treatment naïve yet unsuitable for induction therapy; details: intravenously, in combination with LDAC
[13] = 2nd line

Question: Which primary dose-limiting toxicities ([1]; in vivo) does the source give for `CN1CCN(c2ccc(OC(F)(F)F)c(Nc3ncc4c(n3)-c3c(c(C(N)=O)nn3CCO)CC4)c2)CC1` [onvansertib, 1-(2-hydroxyethyl)-8-{[5-(4-methylpiperazin-1-yl)-2-(trifluoromethoxy)phenyl]amino}-4,5-dihydro-1H-pyrazolo[4,3-h]quinazoline-3-carboxamide] here?
Answer: The primary dose-limiting toxicities was “neutropenia and thrombocytopenia”.

Question: What about the “recovery from hematologic toxicities” value ([1]; reversible) of the same molecule?
Answer: Its value is no more than 3 weeks.

Question: And the survival of animals ([2]; combination therapy with cytarabine)?
Answer: The survival of animals was “prolonged survival”.

Question: And the cytarabine antitumor activity ([2]; in combination with cytarabine)?
Answer: Its cytarabine antitumor activity is “significantly increased”.

Question: And the “tumor regression compared to each agent alone” value [3]?
Answer: The value was “enhanced tumor regression”.

Question: And the “activity in proliferation assays” value [4]?
Answer: Its value is “low nanomolar activity”.

Question: What about the “concentrations inhibiting cell proliferation” value [5] of the same molecule?
Answer: Its value is “nanomolar concentrations”.

Question: What about the tumor growth [6] of the same molecule?
Answer: The tumor growth was “inhibited”.

Question: And the cell-cycle effect [7]?
Answer: The cell-cycle effect was “mitotic cell-cycle arrest followed by apoptosis”.

Question: And the oral bioavailability [8]?
Answer: The oral bioavailability was “good oral bioavailability”.

Question: What about the “specificity for PLK1 among a panel of 296 kinases, including other PLK members” value [9] of the same molecule?
Answer: Its value is “high specificity”.

Question: What about the xenograft tumor growth [10] of the same molecule?
Answer: The xenograft tumor growth was “inhibits xenograft tumor growth”.

Question: For `CC[C@@H]1C(=O)N(C)c2cnc(Nc3ccc(C(=O)N[C@H]4CC[C@H](N5CCN(CC6CC6)CC5)CC4)cc3OC)nc2N1C(C)C` [volasertib (BI6727)], which “benefit of the combination” value [11] is on record?
Answer: The value was “no benefit”.

Question: What about the “risk of severe infections” value [11] of the same molecule?
Answer: Its value is “increased risk of severe infections”.

Question: What about the “OS compared with LDAC alone” value [12] of the same molecule?
Answer: Its value is “significant increase in OS”.

Question: What does the source list for “bev: anti-angiogenics; Bevacizumab (also referred to herein as "bev")”?
Answer: mOS ([13]; bev naïve): 13.9 months; mPFS ([13]; bev naïve): 6.9 months; mOS ([13]; prior bev): 12.5 months; mPFS ([13]; prior bev): 6.7 months
